Reference: patent US8653049B2, “Normuramyl glycopeptide compounds” (priority 2008, dated 2014)
“Also recorded” adds a separate entry of the source.

Key:
[1] = system: NK sensitive K562 cell line; experiment: NK cell cytotoxicity of human PBMC, 51Cr-release against K562; assay type: cell-based; conditions: for dose response of NK cell activity: range 0.1 μM-100 μM, FIG. 28
Method: Ex vivo effects of test compounds on NK cells were evaluated on human peripheral blood mononuclear cells (PBMC). The NK cell cytotoxicity of healthy donors in the presence or absence of test compounds was measured in standard 4 hrs ^51Cr-release assay against NK sensitive K562 cell line in effector (PBMC) to target (K562) ratio 16:1. Test compounds were added at a concentration of 10^−7 mol/ml.
Testing of compounds 23, 24, 32, 33, 40 and 41 for their capacity to induce cell-mediated cytotoxicity of human eripheral blood mononuclear cells (PBMCs) is shown in FIGS. 27 and 28. All donors were healthy. […] The cytotoxicity of untreated controls (30.5%) was renormalized to 100%.

[2] = system: GM-CFC progenitors in bone marrow; experiment: GM-CFC recovery, test compounds before sub-lethal irradiation; assay type: in vivo, ICR/CD-1 mice; conditions: s.c. 100 nmol 24 h before 6 Gy, day 13, FIGS. 33-35
Method: (§1) Institite of Cancer Research (ICR/CD-1) mice (female, age of 3 months, 3-4 per group) were stimulated by s.c. administration of test compounds (volume of 200 μl, 100 nmol per dose) 24 h before sublethal γ-irradiation (6 Gy, ^60Co γray source Chisostat, Chirana Ltd., Czech Republic, at a dose of 0.285 Gy/min.). Mice were sacrified at day 13 and recovery of GM-CFC in femour was assayed by counting of colonies (CFC) formed after cultivation in medium. Non-irradiated mice were used as control for normal GM-CFC count in femour. PBS and empty liposomes were used as controls for spontaneous recovery. Liposomal MDP was used as reference standard.
(§2) The following parameters of hemopoiesis were evaluated: • a) Blood leukocyte counts and bone marrow cellularity. Blood leukocytes (samples of blood drawn from an incision of the tail vein) and nucleated cell elements of the femoral bone marrow (femoral diaphyses flushed with saline) were estimated by means of Coulter Counter (Model ZN, Coulter Electronics). • b) Colony-forming cells in spleen. Endogenous spleen colony-forming units (E-CFUs) were measured on day 9 post the whole-body irradiation with 6.5 Gy (5 mice per group) according to Till and McCulloch. • c) GM-CFC progenitors in bone marrow. Femoral bone marrow cells were obtained from mice by flushing the femour with sterile IMDM medium. Harvested cells were calculated and diluted to 1.5×10^5 cells/ml and plated in triplicate in a semisolid environment created by plasma clot (Iscovess modification of Dulbecco's medium, 20% of fetal calf serum, 10% of colony-stimulating factor, 10% of citrate plasma, and CaCl2 1.5 mg/ml). The cultures were incubated for 7 days at 37° C. in 5% CO2. Colonies of at least 50 cells were scored at 40× magnification.
Statistical significance between individual experimental groups of mice in hemopoietic parameters was calculated by one-way analysis of variance. The Newman-Keuls test for comparison of all pairs of columns and the Dunnett test for comparison of all columns with the control column were used in the analysis.

[3] = system: NK-sensitive YAC1 target cells; experiment: NK cell-mediated cytotoxicity of spleen mononuclear cells, 51Cr-release against YAC1; conditions: FLV-inoculated mice, day 16, 18 h incubation with YAC1; FIG. 26
[4] = system: Salmonella enteritidis; experiment: Stimulation of innate immunity against Salmonella Enteritidis; conditions: for protective effect / survival rate in S. Enteritidis infection: 0 or 1 case of death by day 12; for Day 6 Intest.: clear/infected/dead / Day 6 Liver: clear/infected/dead / Day 6 Lungs: clear/infected/dead / Day 6 Spleen: clear/infected/dead / Day 12 Intest.: clear/infected/dead / Day 12 Liver: clear/infected/dead / Day 12 Lungs: clear/infected/dead / Day 12 Spleen: clear/infected/dead: liposomal, 20 nmol per dose p.o. 72 and 24 h before infection (LD50), 5 mice
[5] = Survival after lethal irradiation (10 Gy); assay type: in vivo, mice (strain ICR); conditions: 200 nmol s.c. 24 h before 10 Gy; FIG. 37
Method: Preparations (200 nmol of active substance) were applied to mice (strain ICR, female, 3 months of age, 10 mice per group) by s.c. route 24 h before irradiation (radiation dose of 10 Gy from a ^60Co gamma-ray source at a dose rate of 0.285 Gy/min). PBS and empty liposome served as negative controls, free and liposomal muramyl dipeptide (MDP) served as positive controls.

[6] = system: r-hsp90 (Candida albicans hsp90) specific IgG antibodies; experiment: Proteoliposome vaccine against C. albicans hsp90: antibody (humoral) response, ELISA; assay type: in vivo, BALB/c mice; conditions: Experiment 12.2; liposomal compound (5%) + Ni-HSP90, boost day 14; FIG. 13
Method: (§3) Proteoliposomes were prepared by coupling recombinant hsp90 antigen (r-hsp90, 6×HISTag) via a metal chelating lipid to liposomes containing muramyl glycopeptide derivatives as adjuvant component. BALB/c […] mice 4 to 5 weeks old (female 20±2 g, 5 animal per group) were immunized by the intradermal route either with 20 μg of free or liposomal r-hsp90 (volume of 60 μl) either with or without L18-norAbu-MDP and boosted 21 days later by the same composition of experimental vaccine. FCA was used as positive control r-hsp90. Liposomal vaccine composition 20 μg of rHSP90 antigen, 5% metallochelating lipid, 5% particular MT analogue, 90% phospolipids.
Blood samples were collected from the tail vein into heparinised capillary PCV tubes. After centrifugation, the upper part of the tube, containing […] blood serum, was cut off, thrown into […] diluting solution and thoroughly shaken. Thus, a basic dilution of 1:33 was obtained. The pre-diluted sera were kept at −20° C. Blood samples were collected before the first immunization, 2 weeks thereafter and subsequently at weekly intervals up to the 4th week after the second immunisation. Specific IgG antibodies in blood serum samples were determined by the standard indirect ELISA procedure. The data obtained were processed statistically using the non-parametric Mann-Whitney U-test.
Proteoliposomes with muramyl glycopeptide derivatives were prepared as described above, but the boost was carried out already after 14 days. The liposomal vaccine composition was as for Experiment Set 1: 20 μg of rHSP90 antigen, 5% metallochelating lipid, 5% particular MT analogue, 90% phospolipids.
Controls: Aluminum hydroxide (AlOH) and Freund complete adjuvans (FCA) were used as positive controls. PBS with empty liposomes was used as negative control (control). Humoral response was tested at day 14 after vaccination (post priming) and at day 20 after vaccination (post booster). Antibody titres were wer assayed by ELISA.

[7] = system: Friend leukemia virus (FLV); experiment: Friend leukemia virus infection: survival, TER-119+ cells, spleen; conditions: day 16; FIG. 24
[8] = system: granulocyte-macrophage progenitor cells (GM-CFC); experiment: Colony stimulating activity (CSA) of serum on GM-CFC; assay type: in vivo, mouse; conditions: liposomal compounds; FIG. 32
Method: Determination of Colony stimulating activity (CSA) and co-stimulating activity (CoSA) in serum: Blood was taken at intervals from 5 to 48 h after injection of the test compounds, and the ability of the sera from treated mice to stimulate in vitro growth of colonies from granulocyte-macrophage progenitor cells (GM-CFC) was determined. CoSA was determined as the ability of tested compounds, sera of treated mice, or conditioned medium from cultures of adherent stromal cells to enhance the number of GM-CFC colonies induced by a sub-optimal concentration of rmIL-3 in the above-described GM-CFC assay. The concentration of rmIL-3 was adjusted to a value which yielded one third of the maximum number of colonies on a dose-dependent curve.

[9] = rabbits, liposomal preparations s.c. 100 nmol/kg, 3 rabbits per group; passes if below 1.1° C.
Method: The test was conducted in an authorised laboratory, ITEST plus s.r.o., Bilé Vchýnice 10, 533 13 Vápno u Prelouce, Czech Republic, according to guide-lines CL 2005.
Rabbits (New Zeeland albino, 4-6 kg, 3 animals per group) were used for testing.
Liposomal preparations of muramyl glycopeptide derivatives were administered s.c. (100 nmol/kg). Empty liposomes were used as negative control and the liposomal as well as the free form of muramyl dipeptide (MDP) (25 μg/kg, corresponding to 50.7 nmol/kg) served as positive control. Temperature was measured in 1, 2, 3, 4,6 and 24 hour intervals.
Empty liposomes were used as negative control; and liposomal as well as free muramyl dipeptide (MDP) (50.7 nmol/kg) served as positive control. B30-norAbu-MDP (MT01, structure on page 5) served as additional control. Temperature was measured in 1, 2, 3, 4, 6 and 24 h intervals. The preparation passed the test if the Sum of ΔTmax remained below 1.1° C. (3 rabbits per group)

[10] = system: IFN-γ production in splenocytes stimulated by rHSP90; experiment: Proteoliposome vaccine against C. albicans hsp90: cellular response (IFN-γ in splenocytes stimulated by rHSP90); assay type: in vivo, BALB/c mice; conditions: Experiment 12.3; liposomal compound (5%) + Ni-HSP90, day 20; FIG. 14
Method: as §3
Production of INF-γ was mesured by standard ELISPOT assay (R&D, USA). Immunised mice were sacrified 4 weeks after booster imunisation and splenocytes were isolated, and stimulated by r-hsp90 (50 μg/ml) and spots were counted.
Proteoliposomes with muramyl glycopeptide derivatives were prepared as described above. Experimental conditions were as for Experiment 12.2.
Cell mediated immune response against rHSP90 antigen formulated in liposomal experimental vaccine was tested at day 20 (6 days after booster). Mice were sacrificed, splenocytes were purified and production of IFN-γ in splenocytes stimulated by rHSP90 was assayed by flow cytometry.

[11] = system: GM-CFC progenitors in bone marrow; experiment: GM-CFC recovery, test compounds after sub-lethal irradiation; assay type: in vivo, ICR/CD-1 mice; conditions: s.c. 100 nmol 24 h after 6 Gy; FIG. 36
Method: as §1, §2
The method is exactly as described above except that the test compounds (volume of 200 μl, 100 nmol per dose) were administered 24 h after sublethal γ-irradiation (6 Gy).

SMILES: CCCCCCCCCCCCCCCCCC(=O)NCCCC[C@H](NC(=O)CC[C@@H](NC(=O)[C@H](CC)NC(=O)CO[C@H]1[C@H](O)[C@@H](CO)OC(O)[C@@H]1NC(C)=O)C(N)=O)C(=O)O (stereo partly drawn) [Compound 32, N-[2-O-(2-Acetamido-2,3-dideoxy-α-D-glucopyranosid-3-yl)-glycoloyl]-L-α-aminobutanoyl-D-isoglutaminyl-L-lysine(stearoyl)]
- lag time to reach full NK stimulating activity ([1]; no vs 18 h pre-incubation): most pronounced
- dose response of NK cell activity [1]: negative dose response
- GM-CFC progenitor cells in bone marrow [2]: strongest effect
- GM-CFC progenitor cells in bone marrow ([2]; listed as compound 32): best compound
- NK cell activity (cell-mediated cytotoxicity of SMCs) [3]: stimulate NK cell functional activity
- protective effect / survival rate in S. Enteritidis infection [4]: good protective effects
- Day 6 Intest.: clear/infected/dead [4]: 5/0/0
- Day 6 Liver: clear/infected/dead [4]: 3/2/0
- Day 6 Lungs: clear/infected/dead [4]: 4/1/0
- Day 6 Spleen: clear/infected/dead [4]: 3/2/0
- Day 12 Intest.: clear/infected/dead [4]: 2/3/0
- Day 12 Liver: clear/infected/dead [4]: 1/4/0
- Day 12 Lungs: clear/infected/dead [4]: 4/1/0
- Day 12 Spleen: clear/infected/dead [4]: 1/4/0
- survival of lethally irradiated mice [5]: best compound; also recorded: best performance
- antibody response to r-hsp90 proteoliposomes [6]: strong and comparable to AlOH
- clonal expansion of TER-119+ erythroleukaemia cells in spleen [7]: dose-dependent, positive effect
- GM-CFC stimulating activity (CSA) in serum [8]: substantially better
- +ΔTmax (Sum of ΔTmax) [9]: 0.5 °C

SMILES: CCCCCCCCCCCCCCC(CCCCCCCCCCCCCC)C(=O)NCCCC[C@H](NC(=O)CC[C@@H](NC(=O)[C@H](CC)NC(=O)CO[C@H]1[C@H](O)[C@@H](CO)OC(O)[C@@H]1NC(C)=O)C(N)=O)C(=O)O (stereo partly drawn) [Compound 33, N-[2-O-(2-Acetamido-2,3-dideoxy-α-D-glucopyranosid-3-yl)-glycoloyl]-L-α-aminobutanoyl-D-isoglutaminyl-L-lysine(2-tetradecylhexadecanoyl)]
- dose response of NK cell activity [1]: positive dose response
- NK cell activity (cell-mediated cytotoxicity of SMCs) [3]: partially 33, had an inhibitory effect
- protective effect / survival rate in S. Enteritidis infection [4]: good protective effects
- Day 6 Intest.: clear/infected/dead [4]: 5/0/0
- Day 6 Liver: clear/infected/dead [4]: 5/0/0
- Day 6 Lungs: clear/infected/dead [4]: 5/0/0
- Day 6 Spleen: clear/infected/dead [4]: 2/3/0
- Day 12 Intest.: clear/infected/dead [4]: 2/2/1
- Day 12 Liver: clear/infected/dead [4]: 1/3/1
- Day 12 Lungs: clear/infected/dead [4]: 2/2/1
- Day 12 Spleen: clear/infected/dead [4]: 1/3/1
- antibody response to r-hsp90 proteoliposomes [6]: strong and comparable to AlOH
- GM-CFC stimulating activity (CSA) in serum [8]: no effect
- cell-mediated response to r-hsp90 proteoliposomes [10]: good results
- +ΔTmax (Sum of ΔTmax) [9]: 0.4 °C
- GM-CFC progenitor cells in bone marrow [11]: strongest performers
